Source: US6906170B1 (Yeda Research and Development Co. Ltd., priority 1998, dated 2005)
No end group written: not given here.

Experiments:
human T cells [1] = experiment: T cell adhesion to FN induced by various activators; type: cell-based; settings: for inhibition of T cell adhesion to FN induced by various stimulators: peptide 10 pg/ml, IL-2, IL-7, MIP-1β, PMA, 8A2 mAb, anti-CD3 mAb
Protocol: FIGS. 7A-7B show inhibition by pep2 (FIG. 7A) and pep1 (FIG. 7B) of T cell adhesion to FN, induced by various activators. […] (1 μg/ml), or anti-human CD3 mAb (1 μg/ml). The IL-2-derived peptides, pep1 or pep2, were also present in some wells. After 30 min at 37° C., non-adherent T cells were removed by washing, the remaining adherent cells were lysed, and the percentage of T cells that had adhered was determined. One experiment representative of four.
(§1) T cell adhesion assays. Human T cells were purified from the peripheral blood of healthy donors, and T cell adhesion to immobilized protein substrates was examined as follows: Human leukocytes were isolated on a Ficoll gradient, washed, and incubated (2 h, 37° C., 7.5% CO2, humidified atmosphere) on petri dishes. The non-adherent cells were then collected and incubated (1 h, 37° C., 7.5% CO2, humidified atmosphere) on nylon wool columns (Novamed Ltd., Jerusalem, Israel). Unbound cells were eluted from the columns by extensive washings. The resulting cell population was always >92% T cells. […] After 4-6 h at 37° C., the wells were washed and ^51[Cr]-labeled T cells were added to the wells, 10^5 cells/100 μl of adhesion medium (RPMI-1640 supplemented with 0.1% BSA, 1% sodium pyruvate, 1% HEPES buffer). The microtiter plates containing the cells were incubated (30 min, 37° C.) in a humidified, 7.5% CO2 atmosphere, and then washed. The adherent cells were lysed, and the resulting supernatants were removed and analyzed in a γ-counter. For each experimental group, the results were expressed as the mean percentage ±SD of bound T cells from quadruplicate wells.
Inhibition by the Ile-Val-Leu and […](SEQ ID NO:1) peptides of T cell adhesion to FN induced by various pro-inflammatory mediators and by mAb specific for molecules expressed on T cells.

human T cells [2] = experiment: T cell chemotaxis through FN-coated polycarbonate membranes; type: cell-based; settings: peptide 1 pg/ml, FN-coated membrane; for inhibition of T cell migration toward IL-2: IL-2 10 U/ml in lower compartment, p<0.01; for inhibition of T cell chemotaxis toward MIP-1β: MIP-1β in lower compartment
Protocol: T cell migration towards the chemotactic sources was assessed after 2 hr. One experiment representative of four.
Chemotaxis assays. T cell chemotaxis was performed and analyzed as previously described (Ben-Baruch et al., 1997). Briefly, the migration of human T cells (0.5×10^6 cells in adhesion medium/well) was examined in a 48-well chemotaxis micro-chamber (Neuro-Probe Inc., Cabin John, M D). The two compartments of the micro-chambers were separated by a FN-coated polycarbonate filter (5 μm pore size; Osmonics Protein Products, Livemore, Calif.). […] After incubation (120 min, 37° C., in a humidified, 7.5% CO2 atmosphere); the filters were removed, fixed, and stained with a Diff-Quik staining kit Dade, Düdingen, Switzerland). The number of migrating T cells in five high-power fields (under 500× magnification; WILD Microscope, Heerbrugg, Switzerland) was evaluated. For each group, the results are expressed as the mean number of cells in one high-power field.
Immune cell migration is the outcome of a subtle biological equilibrium existing between adhesion and detachment events. Lymphocyte adhesion to the subendothelial ECM and subsequent migration are two active processes that can overlap, but are not mutually dependent events. Adhesion and migration may depend on the ability of the T cells to continuously integrate different pro- and anti-adhesive signals via their versatile receptors for ECM, chemokines, cytokines, and possibly, also antigenic moieties.

human T cells [3] = experiment: PHA- or IL-2-mediated T cell proliferation; type: cell-based; settings: peptide 1 to 100 pg/ml
Protocol: The in vitro bioassays (a) to (e) are well-known in the art. Thus, for example, assays (a), (b) and (e) may be carried out as described in the section Materials and Methods hereinafter. […] The IL-2-derived peptides or their derivatives are added to the culture wells (different amounts, 10 microliters) for the entire period of the assay. [^3H]-Thymidine is added to the microtiter 96 U-form well plates 18 h before harvesting the cultures on day 3 onto glass fiber filters and counted by liquid scintillation counter. Mean CPM and SD from quadriplicate culture are then presented.

human T cells [4] = experiment: Secretion of TNF-α and IFN-γ from proliferating T cells; type: cell-based; settings: peptide 1 to 100 pg/ml; not shown
human T cells [5] = experiment: IL-2-induced T cell adhesion to LN, CO-IV and FN after peptide pre-treatment; type: cell-based; settings: pre-exposed to peptide 10 pg/ml, then IL-2 10 U/ml
Protocol: The T cells were then seeded onto microtiter wells that were pre-coated (1 μg/well) with the various ECM glycoproteins. T cell adhesion was measured 30 min later.
as §1
Ile-Val-Leu, Arg-Met-Leu-Thr (SEQ ID NO:2) and […](SEQ ID NO:1) inhibit T cell adhesion to LN, CO-IV and FN. The next experiment was designed and performed to verify that the three IL-2-derived peptides indeed affect T cell interactions with ECM glycoproteins other than FN. […] The treated cells were then added to microtiter wells coated with CO-IV, LN, and FN.

human T cells [6] = experiment: IL-2-induced T cell adhesion to fibronectin (FN); type: cell-based; settings: for concentration giving maximum inhibition of IL-2-induced T cell adhesion to FN / concentration giving maximum inhibition of IL-2-induced T cell adhesion to FN (molar) / inhibition of adhesion of IL-2-activated T cells to FN: IL-2 10 U/ml; for inhibition of adhesion of IL-2-activated T cells to FN: 30 min at 37° C., dose range; for anti-adhesive effect after removal of peptide prior to IL-2 activation: T cells pre-treated 1 pg/ml, washed, then IL-2 and FN-coated wells
Protocol: as §1
The effect of synthetic peptides, with putative amino acid compositions corresponding to fractions 2 and 8, on IL-2-induced T cell adhesion to FN. […] These three peptides were synthesized, and their effects on IL-2-induced T cell adhesion to FN were studied. […] The inhibitory dose-response curves of Ile-Val-Leu and […](SEQ ID NO:1) are similar to those of the HPLC fractions 2 and 8, respectively, from which they were derived. […]

HT-29 cells = experiment: Spontaneous IL-8 secretion from intestinal epithelial cells (ELISA); type: cell-based, human; parameters: IL-8 secretion Average O.D.: scale not given here; settings: peptide 1 nM, 24 h at 37° C.; for IL-8 secretion Average O.D.: ELISA O.D. at 405 nm, medium alone 488 ± 8.5, background 71 ± 1.4; for IL-8 secretion % inhibition: spontaneous secretion
Protocol: Human colonic epithelial cell lines HT-29 (ATCC HTB38) and Caco-2 (ATCC […]) were obtained from the American Type Culture Collection (ATTC, Rockville, Md.). Cells were maintained in culture medium (DMEM supplemented with 10% cosmic calf serum (CSS), 2 mM glutamine, 100 U/ml penicillin, and 0.1 mg/ml streptomycin), at 37° C. and atmosphere of 5%, CO2. Cell viability was assessed using the standard MTT method.
Spontaneous or cytokine-induced secretion of IL-8 or IL-1β from intestinal epithelial cell. Test cells (HT-29 or Caco-2) were grown as confluent monolayers in 24-well tissue culture plates. […] When TNF-α was used, the peptides were added to the cells 1 hour prior to the addition of TNF-α. Following culture, the supernatants were harvested and analyzed for IL-8 or IL-1β secretion by ELISA using commercially available kits for IL-8 (Pharmingen) and IL-1β (Genzyme), according to the manufacturers' protocols.
The results in Table 1 show the O.D. readings of the ELISA assay (at 405 nm) as well as the percentage of inhibition of IL-8 secretion.

Row | Substance | inhibition of 8A2-induced T cell adhesion to FN (human T cells [1]; peptide 0.1 pg/ml) | inhibition of PMA-induced T cell adhesion to FN (human T cells [1]; peptide 0.1 pg/ml) | inhibition of anti-CD3 mAb-induced T cell adhesion to FN (human T cells [1]; peptide 0.1 pg/ml) | inhibition of T cell adhesion to FN induced by various stimulators (human T cells [1]) | inhibition of T cell migration toward IL-2 (human T cells [2]) | inhibition of T cell chemotaxis toward MIP-1β (human T cells [2]) | interference with PHA- or IL-2-mediated proliferative responses (human T cells [3]) | inhibition of secretion of TNF-α and IFN-γ from proliferating T cells (human T cells [4]) | inhibition of T cell adhesion to CO-IV, LN and FN (human T cells [5]) | concentration giving maximum inhibition of IL-2-induced T cell adhesion to FN (human T cells [6]) [pg/mL] | concentration giving maximum inhibition of IL-2-induced T cell adhesion to FN (molar) (human T cells [6]) [pM] | inhibition of adhesion of IL-2-activated T cells to FN (human T cells [6]) | anti-adhesive effect after removal of peptide prior to IL-2 activation (human T cells [6]) | IL-8 secretion Average O.D. (HT-29 cells) | IL-8 secretion % inhibition (HT-29 cells) [%]
1 | Ile-Val-Leu [pep1] | did not inhibit | did not inhibit | did not inhibit | inhibited T cell adhesion to FN | about 30% | 80% | none of them, at 1 to 100 pg/ml, interfered with either PHA- or IL-2-mediated proliferative responses | nor did these peptides inhibit the secretion of TNF-α and IFN-γ | inhibit T cell adhesion to the three major cell-adhesive glycoproteins of the ECM | 1 | 2.91 | inhibited, in a dose-dependent manner | most of the anti-adhesive effects of the three peptides persevered | 54 ± 19.1 | 104
2 | Glu-Phe-Leu-Asn-Arg-Trp-Ile-Thr (EFLNRWIT; not fully specified (C-terminus); printed as Glu-Phe-Leu-Asn-Arg-Trp-Ile-Thr) [pep2] | did not inhibit | did not inhibit | – | inhibited T cell adhesion to FN | ~60% | only a limited inhibitory effect | none of them, at 1 to 100 pg/ml, interfered with either PHA- or IL-2-mediated proliferative responses | nor did these peptides inhibit the secretion of TNF-α and IFN-γ | inhibit T cell adhesion to the three major cell-adhesive glycoproteins of the ECM | 1 | 0.92 | inhibited, in a dose-dependent manner | most of the anti-adhesive effects of the three peptides persevered | 36 ± 4.2 | 108
